Data on 24 molecules can be found in publication PMC9333195, “Discovery of 2-Phenylquinoline-4-Carboxylic Acid Derivatives as Novel Histone Deacetylase Inhibitors” (Frontiers in Chemistry, 2022).

The subject of series [1] is Hela nucleus extract containing a mixture of HDAC isoforms. Put plainly: In vitro HDAC inhibitory assay, HeLa cell nuclear extract screening at 2 µM. The format is biochemical. The conditions noted are these: 2.0 µM compound, mean of three experiments. How it is done:
The HDAC enzyme inhibitory activities of synthesized compounds were evaluated against Hela nucleus extract containing a mixture of HDAC isoforms. Percentage inhibitory rate (PIR) was calculated to determine the activity of tested compounds (Table 1).
All HDAC enzymes were purchased from BPS Bioscience. […] The reaction was terminated by adding 100 μl of imaging agent containing trypsin and trichostatin A (TSA). After standing for 20 min, the fluorescence intensity was measured at the excitation and emission wavelengths of 360 and 460 nm with a microplate reader. The inhibition rate was calculated from the fluorescence intensity readings of the test wells relative to the control wells, and the IC50 curve and value were determined by GraphPad Prism 6.0 software.

In the next series the test system is K562 cells. Put plainly: CCK-8 antiproliferative assay, K562. Particulars: for K562 percentage inhibitory rate: 2.0 µM compound, K562 cells, CCK-8, mean of three experiments; for inhibition at 2 µM: Homo sapiens, K562, read-out: K562 percentage inhibitory rate.

Protocol for K562 cells: The proliferation of cancer cells was tested by CCK-8 assay. Briefly, cells were seeded in a 96-well plate with about 5 × 10^3 cells in each well. In the K652 cell screening, cells were treated with 2.0 μM of tested compounds. […] The light absorbance at 450 nm was measured by using an Opsys microplate reader (Dynex Technologies, Chantilly, VA, United States).

In the case of “3,5-Difluoro-N-(4-(4-(4-(4-(Hydroxycarbamoyl)Phenyl)Piperazine-1-Carbonyl)Quinolin-2-yl)Phenyl)Benzamide [Compound D25]”, the “HDACs percentage inhibitory rate (PIR)” value in series [1] is 54.74 ± 1.41%. The “K562 percentage inhibitory rate” value in the series with K562 cells was 37.64 ± 0.13%.

As for “4-(4-(2-(4-Fluoro-3-Methylphenyl)Quinoline-4-Carbonyl)Piperazin-1-yl)-N-Hydroxybenzamide [Compound D17]”, in series [1], the “HDACs percentage inhibitory rate (PIR)” value is on record as 47.41 ± 1.03%. Also, the “K562 percentage inhibitory rate” value in the series on K562 cells worked out at 41.91 ± 0.13%.

`O=C(NO)c1ccc(N2CCN(C(=O)c3cc(-c4ccccc4)nc4ccccc34)CC2)cc1` [Compound D1, N-Hydroxy-4-(4-(2-Phenylquinoline-4-Carbonyl)Piperazin-1-yl)Benzamide]: the melting point lay within 213.8 to 214.8 °C. For the same molecule, the “HDACs percentage inhibitory rate (PIR)” value in series [1] turned out to be 57.96 ± 0.43%. Also, the inhibition at 2 µM in the series on K562 cells was 46.58 ± 0.35%.

The molecule `O=C(NO)c1ccc(N2CCN(C(=O)c3cc(-c4ccc(Br)cc4)nc4ccccc34)CC2)cc1` [Compound D2, 4-(4-(2-(4-Bromophenyl)Quinoline-4-Carbonyl)Piperazin-1-yl)-N-Hydroxybenzamide] yielded a melting point of 231.7 to 232.8 °C. Also, in series [1], the “HDACs percentage inhibitory rate (PIR)” value is recorded as 59.50 ± 0.35%. Further, the inhibition at 2 µM with K562 cells amounted to 48.8 ± 1.32%.

Molecule `O=C(NO)c1ccc(N2CCN(C(=O)c3cc(-c4ccc(Cl)cc4)nc4ccccc34)CC2)cc1` [Compound D3, 4-(4-(2-(4-Chlorophenyl)Quinoline-4-Carbonyl)Piperazin-1-yl)-N-Hydroxybenzamide] displayed a melting point of 228.1 to 229.2 °C. In series [1], the “HDACs percentage inhibitory rate (PIR)” value stood at 49.43 ± 3.73%. The inhibition at 2 µM in the series with K562 cells was 46.4 ± 0.53%.

In the case of `O=C(NO)c1ccc(N2CCN(C(=O)c3cc(-c4ccc(F)cc4)nc4ccccc34)CC2)cc1` [Compound D4, 4-(4-(2-(4-Fluorophenyl)Quinoline-4-Carbonyl)Piperazin-1-yl)-N-Hydroxybenzamide], the melting point was in the range of 163.5 to 164.8 °C. The “HDACs percentage inhibitory rate (PIR)” value in series [1] turned out to be 47.79 ± 1.34%. In addition, the inhibition at 2 µM with K562 cells amounted to 32.43 ± 0.2%.

As for `CSc1ccc(-c2cc(C(=O)N3CCN(c4ccc(C(=O)NO)cc4)CC3)c3ccccc3n2)cc1` [Compound D5, N-Hydroxy-4-(4-(2-(4-(Methylthio)Phenyl)Quinoline-4-Carbonyl)Piperazin-1-yl)Benzamide], the melting point was in the range of 177.2 to 179.6 °C. Moreover, the “HDACs percentage inhibitory rate (PIR)” value in series [1] came to 50.93 ± 0.93%. In addition, the inhibition at 2 µM in the series with K562 cells stood at 47.4 ± 1.11%.

For `COc1ccc(-c2cc(C(=O)N3CCN(c4ccc(C(=O)NO)cc4)CC3)c3ccccc3n2)cc1` [Compound D6, N-Hydroxy-4-(4-(2-(4-Methoxyphenyl)Quinoline-4-Carbonyl)Piperazin-1-yl)Benzamide], the melting point lay within 184.3 to 186.8 °C. In addition, in series [1], the “HDACs percentage inhibitory rate (PIR)” value is 52.31 ± 3.09%. Besides, the inhibition at 2 µM with K562 cells was determined as 51.55 ± 0.25%.

`O=C(NO)c1ccc(N2CCN(C(=O)c3cc(-c4ccc(C(F)(F)F)cc4)nc4ccccc34)CC2)cc1` [Compound D7, N-Hydroxy-4-(4-(2-(4-(Trifluoromethyl)Phenyl)Quinoline-4-Carbonyl)Piperazin-1-yl)Benzamide]: the melting point was 212.7 to 213.9 °C. Besides, the “HDACs percentage inhibitory rate (PIR)” value in series [1] was 52.60 ± 2.37%. In the series on K562 cells, the inhibition at 2 µM was found to be 40.3 ± 1.2%.

`O=C(NO)c1ccc(N2CCN(C(=O)c3cc(-c4cccc(Cl)c4)nc4ccccc34)CC2)cc1` [Compound D8, 4-(4-(2-(3-Chlorophenyl)Quinoline-4-Carbonyl)Piperazin-1-yl)-N-Hydroxybenzamide] showed a melting point of 207.1 to 208.9 °C. The “HDACs percentage inhibitory rate (PIR)” value in series [1] is on record as 51.81 ± 4.07%. Besides, the inhibition at 2 µM in the series on K562 cells stood at 42.9 ± 1.02%.

As to `Cc1cccc(-c2cc(C(=O)N3CCN(c4ccc(C(=O)NO)cc4)CC3)c3ccccc3n2)c1` [Compound D9, N-Hydroxy-4-(4-(2-(m-Tolyl)Quinoline-4-Carbonyl)Piperazin-1-yl)Benzamide], the melting point is 199.2 to 199.7 °C. Moreover, in series [1], the “HDACs percentage inhibitory rate (PIR)” value is 49.33 ± 0.82%. The inhibition at 2 µM with K562 cells is 45.81 ± 0.33%.

Molecule `O=C(NO)c1ccc(N2CCN(C(=O)c3cc(-c4ccccc4F)nc4ccccc34)CC2)cc1` [Compound D10, 4-(4-(2-(2-Fluorophenyl)Quinoline-4-Carbonyl)Piperazin-1-yl)-N-Hydroxybenzamide] displayed a melting point of 172.5 to 173.3 °C. Moreover, the “HDACs percentage inhibitory rate (PIR)” value in series [1] amounted to 58.52 ± 0.64%. Further, in the series on K562 cells, the inhibition at 2 µM is 40.9 ± 1.22%.

As to `COc1cccc(-c2cc(C(=O)N3CCN(c4ccc(C(=O)NO)cc4)CC3)c3ccccc3n2)c1` [Compound D11, N-Hydroxy-4-(4-(2-(3-Methoxyphenyl)Quinoline-4-Carbonyl)Piperazin-1-yl)Benzamide], the melting point was 179.8 to 180.9 °C. Besides, the “HDACs percentage inhibitory rate (PIR)” value in series [1] is listed as 63.49 ± 4.61%. For the same molecule, in the series with K562 cells, the inhibition at 2 µM was 46.09 ± 0.43%.

Take `O=C(NO)c1ccc(N2CCN(C(=O)c3cc(-c4cc(F)cc(F)c4)nc4ccccc34)CC2)cc1` [Compound D12, 4-(4-(2-(3,5-Difluorophenyl)Quinoline-4-Carbonyl)Piperazin-1-yl)-N-Hydroxybenzamide]: the melting point fell in the range of 221.8 to 222 °C. For the same molecule, the “HDACs percentage inhibitory rate (PIR)” value in series [1] is 74.91 ± 0.35%. Further, the inhibition at 2 µM in the series with K562 cells was found to be 51.8 ± 1.35%.

Regarding `COc1ccccc1-c1cc(C(=O)N2CCN(c3ccc(C(=O)NO)cc3)CC2)c2ccccc2n1` [Compound D13, N-Hydroxy-4-(4-(2-(2-Methoxyphenyl)Quinoline-4-Carbonyl)Piperazin-1-yl)Benzamide], the melting point was 224 to 224.9 °C. The “HDACs percentage inhibitory rate (PIR)” value in series [1] amounted to 54.24 ± 0.18%. For the same molecule, in the series with K562 cells, the inhibition at 2 µM was 43.81 ± 0.26%.

As for `O=C(NO)c1ccc(N2CCN(C(=O)c3cc(-c4ccccc4Cl)nc4ccccc34)CC2)cc1` [Compound D14, 4-(4-(2-(2-Chlorophenyl)Quinoline-4-Carbonyl)Piperazin-1-yl)-N-Hydroxybenzamide], the melting point lay within 235 to 236.4 °C. Besides, the “HDACs percentage inhibitory rate (PIR)” value in series [1] is recorded as 49.74 ± 2.06%. For the same molecule, in the series on K562 cells, the inhibition at 2 µM is 48.3 ± 1.02%.

Molecule `O=C(NO)c1ccc(N2CCN(C(=O)c3cc(-c4cccc(F)c4)nc4ccccc34)CC2)cc1` [Compound D15, 4-(4-(2-(3-Fluorophenyl)Quinoline-4-Carbonyl)Piperazin-1-yl)-N-Hydroxybenzamide] came in with a melting point of 225 to 226.3 °C. Further, the “HDACs percentage inhibitory rate (PIR)” value in series [1] stood at 58.80 ± 2.95%. For the same molecule, the inhibition at 2 µM in the series with K562 cells is 26.2 ± 0.62%.

In the case of `CN(C)c1ccc(-c2cc(C(=O)N3CCN(c4ccc(C(=O)NO)cc4)CC3)c3ccccc3n2)cc1` [Compound D18, 4-(4-(2-(4-(Dimethylamino)Phenyl)Quinoline-4-Carbonyl)Piperazin-1-yl)-N-Hydroxybenzamide], the melting point lay within 200.6 to 201.2 °C. Further, the “HDACs percentage inhibitory rate (PIR)” value in series [1] came out at 48.37 ± 0.35%. In addition, the inhibition at 2 µM in the series with K562 cells worked out at 48.3 ± 0.31%.

The molecule `O=C(NO)c1ccc(N2CCN(C(=O)c3cc(-c4ccc(NC(=O)c5ccccc5)cc4)nc4ccccc34)CC2)cc1` [Compound D19, 4-(4-(2-(4-Benzamidophenyl)Quinoline-4-Carbonyl)Piperazin-1-yl)-N-Hydroxybenzamide] returned a melting point of 173.9 to 174.8 °C. For the same molecule, the “HDACs percentage inhibitory rate (PIR)” value in series [1] is 45.31 ± 0.68%. For the same molecule, the inhibition at 2 µM with K562 cells was 59.19 ± 0.35%.

For the molecule `O=C(NO)c1ccc(N2CCN(C(=O)c3cc(-c4ccc(NC(=O)c5ccc(F)cc5)cc4)nc4ccccc34)CC2)cc1` [Compound D20, 4-Fluoro-N-(4-(4-(4-(4-(Hydroxycarbamoyl)Phenyl)Piperazine-1-Carbonyl)Quinolin-2-yl)Phenyl)Benzamide], the melting point fell in the range of 178.3 to 180.3 °C. In series [1], the “HDACs percentage inhibitory rate (PIR)” value turned out to be 48.46 ± 0.68%. In addition, the inhibition at 2 µM in the series on K562 cells came to 45.9 ± 1.34%.

The molecule `O=C(NO)c1ccc(N2CCN(C(=O)c3cc(-c4ccc(NC(=O)c5cccc(Br)c5)cc4)nc4ccccc34)CC2)cc1` [Compound D21, 3-Bromo-N-(4-(4-(4-(4-(Hydroxycarbamoyl)Phenyl)Piperazine-1-Carbonyl)Quinolin-2-yl)Phenyl)Benzamide] had a melting point of 170.5 to 170.8 °C. Also, in series [1], the “HDACs percentage inhibitory rate (PIR)” value was found to be 50.26 ± 1.41%. The inhibition at 2 µM in the series on K562 cells came out at 47.6 ± 0.92%.

Consider `O=C(NO)c1ccc(N2CCN(C(=O)c3cc(-c4ccc(NC(=O)c5ccccc5F)cc4)nc4ccccc34)CC2)cc1` [Compound D22, 2-Fluoro-N-(4-(4-(4-(4-(Hydroxycarbamoyl)Phenyl)Piperazine-1-Carbonyl)Quinolin-2-yl)Phenyl)Benzamide], for which the melting point is 163.5 to 164.2 °C. Moreover, the “HDACs percentage inhibitory rate (PIR)” value in series [1] is 56.86 ± 1.79%. For the same molecule, the inhibition at 2 µM in the series on K562 cells is 65.1 ± 1.34%.

Molecule `O=C(NO)c1ccc(N2CCN(C(=O)c3cc(-c4ccc(NC(=O)c5ccccc5Cl)cc4)nc4ccccc34)CC2)cc1` [Compound D23, 2-Chloro-N-(4-(4-(4-(4-(Hydroxycarbamoyl)Phenyl)Piperazine-1-Carbonyl)Quinolin-2-yl)Phenyl)Benzamide] yielded a melting point of 167.2 to 167.8 °C. Further, the “HDACs percentage inhibitory rate (PIR)” value in series [1] was found to be 62.91 ± 2.26%. Also, the inhibition at 2 µM in the series with K562 cells amounted to 61.92 ± 0.42%.

Consider “N-Hydroxy-4-(4-(2-(o-Tolyl)Quinoline-4-Carbonyl)Piperazin-1-yl)Benzamide [Compound D16]”, for which, in series [1], the “HDACs percentage inhibitory rate (PIR)” value came out at 49.04 ± 31.22%. In addition, the “K562 percentage inhibitory rate” value in the series on K562 cells was 15.26 ± 0.33%.
